Test results reported in US6444467B1, “Process for production and subsequent ex vitro sowing and propagation of pre-germinated plant somatic embryos” (Cellfor Inc., priority 1998, dated 2002).

Tested on: spruce somatic embryos
Experiment: ex vitro re-germination of desiccated, pre-germinated spruce somatic embryos after ABA treatment
Assay type: in vivo
Details: 90 min in darkness
From the text: Somatic embryos of interior spruce (Picea glauca (Moench) Voss x P. engelmannii Parry ex Engelm.) lines I-1026, and 10-1418 were produced and dried with a high-relative-humidity treatment (HRHT) according to the methods of Roberts et al. (1990a; 1990b) and Webster et al. (1990).
Two groups of dried embryos for each of the two genotypes, were germinated on Whatman #1 filter paper on a thin layer of cotton in polycarbonate boxes. The liquid germination medium was modified GMD medium (NH4^+—N/NO3^−—N ratio was 1.4; phosphate concentration was 6 mM; 3% sucrose). After the embryos were sown onto the filter paper, the liquid level in the germination boxes was adjusted to provide a liquid film surrounding the surface of embryos situated at the interface with the solid support. The boxes were sealed with Parafilm and placed in a controlled environment room with the temperature maintained at a constant 23° C.
The first group of somatic embryos was germinated for 7 days after which, the polycarbonate boxes containing the germinants were transferred into refrigerated storage (i.e., temperatures were within a range of 8-12° C.) for 72 hours. The germinants were then removed from the cold treatment and subsequently received the various ABA treatments described below. The germinants which received the cold treatment are hereafter referred to as “stored germinants” .
This group of germinants is referred to hereafter as “fresh germinants”.
The stored and fresh germinants of each genotype were carefully paired into four groups, on wetted paper towel disks in separate 10 cm Petri dishes and received four ABA treatments, said ABA treatments being concentrations of 0, 5, 10, 20 μM, respectively. The ABA treatments were applied in darkness for 90 min.
After the completion of the ABA treatments, the somatic germinants were blot-dried on paper towels. The germinants were then transferred to fresh 5 cm Petri dish. The dishes, two per drying chamber, were placed in drying chambers containing a saturated KCl solution, which provided an atmospheric humidity of 85% RH over the liquid surface in a sealed chamber at 20° C. The somatic germinants were dried for 24 hr in a refrigerated room maintained between 5-8° C. after which, the drying chambers were transferred into a controlled environment room maintained at 20° C. for another 15 h.
The dried germinants were sown into 288-cavity miniplug trays (TLC Polyform Inc,. Plymouth Minn., USA, 55441) filled with a peat-based soilless mix comprised of 60% peat and 40% coarse horticultural vermiculite. Each germinant type of each genotype in each ABA treatment was randomly sown into 5 minitrays in blocks of 20 germinants. After sowing, the germinants were covered with a thin layer of coir (1993 Crystal Co., St. Louis, Mo., USA). The trays were wrapped in black plastic bags for 18 hrs to allow slow rehydration of germinants. Then, the trays were misted with a modified GMD nutrient solution (Webster et al., 1990) containing 3% sucrose until the soilless mix and coir became well wetted. The trays were placed in two misting chambers in a controlled environment germination room under light reduced by a 50% shade cloth for the first week. The shade cloth was removed at the end of the first week and the germinants were exposed to a light intensity of 180 μmol m^−2s^−1 photosynthetic photon flux. The chambers were frequently misted to keep the soilless mix moistened. Modified GMD solution with 3% sucrose was sprayed onto the germinants daily. After 7 days, germinants were fertilized weekly with 20-20-20 fertilizer (Plant Products Ltd., Brampton, ON, Canada) to deliver the equivalent of 100 ppm N.

With CC1=CC(=O)CC(C)(C)[C@@]1(O)/C=C/C(C)=C\C(=O)O [ABA, abscisic acid] the “Re-germination success (%)” value (genotype 10-1418, "fresh" germinants, ABA 5 μM) was 53.8%, the “Re-germination success (%)” value (genotype 10-1418, "fresh" germinants, ABA 10 μM) was 16.6% and the “Re-germination success (%)” value (genotype 10-1418, "fresh" germinants, ABA 20 μM) was 29.8%. For the same molecule, the “Re-germination success (%)” value (genotype 10-1418, "stored" germinants, ABA 5 μM) was 59.8%, the “Re-germination success (%)” value (genotype 10-1418, "stored" germinants, ABA 10 μM) was 57.5% and the “Re-germination success (%)” value (genotype 10-1418, "stored" germinants, ABA 20 μM) was 60.0%. The “Re-germination success (%)” value (genotype I-1026, "fresh" germinants, ABA 5 μM) was 35.0%, the “Re-germination success (%)” value (genotype I-1026, "fresh" germinants, ABA 10 μM) was 53.3% and the “Re-germination success (%)” value (genotype I-1026, "fresh" germinants, ABA 20 μM) was 48.2%. The “Re-germination success (%)” value (genotype I-1026, "stored" germinants, ABA 5 μM) was 71.8%, the “Re-germination success (%)” value (genotype I-1026, "stored" germinants, ABA 10 μM) was 74.3% and the “Re-germination success (%)” value (genotype I-1026, "stored" germinants, ABA 20 μM) was 73.5%.
